Laboratory results: PubChem BioAssay AID2060499 (Molecular Pharmacology Branch, DTP, NCI, 2025)
Values joined by “and” are separate entries in the source; they are usually repeats but may differ in a detail not shown here. Equal values may be shown once.

Tested on: 777334-354-R2-J4-PDC tumor spheroids with HUVEC/MSC, viability
Assay: Anticancer human tumor 777334-354-R2-J4-PDC patient-derived pancreatic adenocarcinoma cell line growth inhibition [GQUAD]
Settings: for viability, T/C: stronger effect = lower value; active means viability on the fitted dose curve at most 10% of control; inactive means the rest
From the text: DNA G-quadruplex Stabilizer Agents in Combinations in Complex Spheroids
A high-throughput screen of multi-cell type tumor spheroids was designed to identify active combinations of DNA G-quadruplex stabilizer agents and targeted small molecules. Complex spheroids include a stromal component modeled by human endothelial cells (HUVEC) and fibroblasts modeled by human mesenchymal stem cells (MSCs). The concentration ranges selected for each drug and investigational agent were based upon clinically achievable concentrations if the clinical Cmax of the agent was known.
Compounds. The drugs and investigational agents: pidnarulex (CX-5461; NSC782164), APTO-253 (NSC789042), BRACO-19 (NSC847499), peposertib (NSC802822), ceralasertib (NSC780249), elimusertib (NSC800525), camonsertib (NSC841442), AZD-1390 (NSC803789), olaparib (NSC753686), talazoparib (NSC767125), ART-558 (NSC835418), sotorasib (NSC818433), MRTX-1133 (NSC836407), SN-38 (NSC673596), topotecan (NSC609699), etoposide (NSC141540), doxorubicin (NSC123127), gemcitabine (NSC613327), 5-fluorouracil (NSC19893), paclitaxel (NSC125973), vemurafenib (NSC761431), panobinostat (NSC761190), R-306465 (JNJ-16241199; NSC773264), adavosertib (NSC754352), TP-3654 (NSC805149), carboplatin (NSC241240), KSQ-4279 (NSC840948), and staurosporine (NSC755774) were obtained from the National Cancer Institute (NCI) Developmental Therapeutics Program Chemical Repository (34). The FDA-approved anticancer drug set is available from the NCI Developmental Therapeutics Program. […] The stock solutions were prepared in dimethyl sulfoxide (DMSO, Sigma-Aldrich, St. Louis, MO, cat. D2650) at 800-fold the tested concentration and stored at -70 degrees C prior to their use. All drugs and investigational agents were tested over a range starting from a high concentration at or near the clinical Cmax and decreasing in half-log increments. If the clinical Cmax for an agent had not been determined, the highest concentration tested was 10 microM.
2.3 Cell Culture. All cells were maintained in an incubator at 37 degrees C and 5% CO2 with 95% humidity. The PDC lines were cultured according to standard operating procedures established by the NCI PDMR. All PDCs were thawed and cultured in Matrigel-coated flasks prepared with a working solution of 1X Ham's F-12 nutrient mix, without supplementation (Invitrogen, cat. 11765054), 100 U/mL penicillin-streptomycin (Invitrogen, cat. 15140122), and 2.5% Matrigel (Corning Inc., cat. 354248) for the first three passages. The 857933-349-R-J2-PDC line was cultured in 6C/Colon 1B media, which includes advanced DMEM/F-12 (Thermo Fisher Scientific, cat. 12634028), 10 mM HEPES (Thermo Fisher Scientific, cat. 15630080), 1X GlutaMAX supplement (Thermo Fisher Scientific, cat. 35050061), 0.1 mg/mL primocin (InvivoGen, cat. ant-pm-2), 10% defined fetal bovine serum, heat inactivated (HyClone Laboratories Inc., cat. SH30070.03HI), 50% L-WRN conditioned media (ATCC, cat. CRL-3276), 1.25 mM N-Acetyl-L-cysteine (Sigma-Aldrich, cat. A9165), 10 mM nicotinamide (Sigma-Aldrich, cat. N0636), 1X B-27 supplement (Thermo Fisher Scientific, cat. 17504044), 1X N-2 supplement (Thermo Fisher Scientific, cat. 17502048), 10 microM Y-27632 dihydrochloride (Tocris Bioscience, cat. 1254), and 50 ng/mL human EGF recombinant protein (Thermo Fisher Scientific, cat. PHG0311). The 485176-168-R4-J1-PDC line was cultured in Panc media, which includes all 6C/Colon 1B media components plus 100 ng/mL human FGF-10 (Thermo Fisher Scientific, cat. 100-26), 500 nM SB-431542 (Selleckchem, cat. S1067), and gastrin (Tocris, cat. 3006).
[…]
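Further: spheroids exposed to compounds for 7 days before readout.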

C=CCn1c(=O)c2cnc(Nc3ccc(N4CCN(C)CC4)cc3)nc2n1-c1cccc(C(C)(C)O)n1
inactive: viability, T/C (compound 0.0316 µM) 93.8% and 101% and 99.7% | viability, T/C (compound 0.1 µM) 85.8% and 102% and 88% | viability, T/C (compound 0.316 µM) 81.1% and 84.7% and 74.9% | viability, T/C (compound 1 µM) 43.1% and 45.4% and 41.5% | viability, T/C (compound 3.16 µM) 35.6% and 37.4% and 39% | viability, T/C (compound 10 µM) 30.4% and 38.4% and 35.2%
0.821 µM and 0.869 µM and 0.787 µM: IC50 (curve of compound)

O=C(NO)c1cnc(N2CCN(S(=O)(=O)c3ccc4ccccc4c3)CC2)nc1
11.9% and 9.01% and 3.01%: viability, T/C (compound 3.16 µM)
inactive: viability, T/C (compound 0.0316 µM) 80.7% and 107% and 88.9% | viability, T/C (compound 0.1 µM) 89.8% and 86% and 83.7% | viability, T/C (compound 0.316 µM) 77.1% (2×) and 79.3% | viability, T/C (compound 1 µM) 58% and 59.4% and 44%
1.2 µM and 1.07 µM and 0.793 µM: IC50 (curve of compound)
active: viability, T/C (compound 10 µM) 0.93% and 0.25% and 0.19%

Cc1[nH]c2ccc(F)cc2c1-c1nc2c3cccnc3c3ncccc3c2[nH]1
2.51 µM [middle of 7 runs]: IC50 (compound alone, run of 03/18/2024)
inactive: viability, T/C (compound 0.0316 µM) 101% [middle of 12 runs] | viability, T/C (compound 0.1 µM) 98% [middle of 12 runs] | viability, T/C (compound 0.316 µM) 97.4% [middle of 11 runs] | viability, T/C (compound 1 µM) 86.4% [middle of 12 runs] | viability, T/C (compound 3.16 µM) 43.9% [middle of 12 runs]

CN(C)c1ccc(Nc2c3ccc(NC(=O)CCN4CCCC4)cc3nc3cc(NC(=O)CCN4CCCC4)ccc23)cc1
inactive: viability, T/C (compound 0.0316 µM) 98.1% [middle of 12 runs] | viability, T/C (compound 0.1 µM) 101% [middle of 12 runs] | viability, T/C (compound 0.316 µM) 94.1% [middle of 12 runs] | viability, T/C (compound 1 µM) 94.9% [middle of 12 runs] | viability, T/C (compound 3.16 µM) 90.3% [middle of 12 runs] | viability, T/C (compound 10 µM) 81.3% [middle of 12 runs]
> 10 µM: IC50 (compound alone, run of 03/26/2024)

CCCS(=O)(=O)Nc1ccc(F)c(C(=O)c2c[nH]c3ncc(-c4ccc(Cl)cc4)cc23)c1F + Cc1cnc(CNC(=O)c2c(=O)c3ccc(N4CCCN(C)CC4)nc3n3c2sc2ccccc23)cn1
6.74 µM: IC50 (curve of first compound, second compound 0.316 µM)
> 10 µM: IC50 (curve of first compound, second compound 3.16 µM)
7.16 µM: IC50 (curve of first compound, second compound 0.0316 µM) | IC50 (curve of first compound, second compound 1 µM)
3.87 µM: IC50 (curve of first compound, second compound 10 µM)
active: viability, T/C (second compound 10 µM, first compound 10 µM) 0.24%
6.93 µM: IC50 (curve of first compound, second compound 0.1 µM)
inactive: viability, T/C (second compound 0.0316 µM, first compound 0.0316 µM) 99.3% | viability, T/C (second compound 0.0316 µM, first compound 0.1 µM) 89.1% | viability, T/C (second compound 0.0316 µM, first compound 0.316 µM) 105% | viability, T/C (second compound 0.0316 µM, first compound 1 µM) 94.3% | viability, T/C (second compound 0.0316 µM, first compound 3.16 µM) 106% | viability, T/C (second compound 0.0316 µM, first compound 10 µM) 30% | viability, T/C (second compound 0.1 µM, first compound 0.0316 µM) 83.5% | viability, T/C (second compound 0.1 µM, first compound 0.1 µM) 88.7% | viability, T/C (second compound 0.1 µM, first compound 0.316 µM) 104% | viability, T/C (second compound 0.1 µM, first compound 1 µM) 95.5% | viability, T/C (second compound 0.1 µM, first compound 3.16 µM) 88% | viability, T/C (second compound 0.1 µM, first compound 10 µM) 32.1% | viability, T/C (second compound 0.316 µM, first compound 0.0316 µM) 88.7% | viability, T/C (second compound 0.316 µM, first compound 0.1 µM) 91.7% | viability, T/C (second compound 0.316 µM, first compound 0.316 µM) 69% | viability, T/C (second compound 0.316 µM, first compound 1 µM) 92.6% | viability, T/C (second compound 0.316 µM, first compound 3.16 µM) 93.3% | viability, T/C (second compound 0.316 µM, first compound 10 µM) 30.7% | viability, T/C (second compound 1 µM, first compound 0.0316 µM) 68.8% | viability, T/C (second compound 1 µM, first compound 0.1 µM) 77.6% | viability, T/C (second compound 1 µM, first compound 0.316 µM) 78.5% | viability, T/C (second compound 1 µM, first compound 1 µM) 71.2% | viability, T/C (second compound 1 µM, first compound 3.16 µM) 74.9% | viability, T/C (second compound 1 µM, first compound 10 µM) 40.2% | viability, T/C (second compound 3.16 µM, first compound 0.0316 µM) 59% | viability, T/C (second compound 3.16 µM, first compound 0.1 µM) 61.1% | viability, T/C (second compound 3.16 µM, first compound 0.316 µM) 68.9% | viability, T/C (second compound 3.16 µM, first compound 1 µM) 71.2% | viability, T/C (second compound 3.16 µM, first compound 3.16 µM) 72% | viability, T/C (second compound 3.16 µM, first compound 10 µM) 43.1% | viability, T/C (second compound 10 µM, first compound 0.0316 µM) 52.7% | viability, T/C (second compound 10 µM, first compound 0.1 µM) 48.6% | viability, T/C (second compound 10 µM, first compound 0.316 µM) 68.2% | viability, T/C (second compound 10 µM, first compound 1 µM) 68.4% | viability, T/C (second compound 10 µM, first compound 3.16 µM) 65.2%
